Reference: US20230102192A1, “THERAPIES FOR THE TREATMENT OF DISEASES AND DISORDERS ASSOCIATED WITH ABNORMAL EXPRESSION OF A NEURAL-ASSOCIATED GENE” (The Regents of the University of California, priority 2020, published 2023)
Entries after “also recorded” stand apart in the source; their conditions may differ.

Columns and labels:
Format in all cases: cell-based, human
MECP2-KO neurons [1] = assay: Multi-electrode array (MEA) of neurons
Procedure: (§1) Pharmacologic treatment. One-month old cortical organoids were treated for 1 mo with either Nefiracetam (10 μM) or PHA 543613 (10 μM) during media changes.
(§2) Multi-electrode array (MEA) analysis. MEA analyses of neurons and cortical organoids were performed as described in Nageshappa et al. (Mol. Psychiatry 21:178-188 (2016)). Briefly, 3D neurosphere cultures of NPC derivation were plated on dual-chamber MEA; spontaneous spike activity was evaluated with the MED64 System (Panasonic). Glutamatergic (AP5, NBQX), GABAergic (Gabazine), and gap channel (Mefloquine) antagonism were used to check neuronal activity. After measurement, neurons were immunostained to check morphology and density. Recorded spikes were analyzed with the software Neuroexplorer (Nex Technologies, Madison, Ala., USA). For cortical organoids, 1-month organoids were plated on MEA plates and recordings were collected with a Maestro MEA system and AxIS Software Spontaneous Neural Configuration (Axion Biosystems, Atlanta, Ga., USA) using a customized script. The plate rested in the machine for three minutes followed by four minutes of recording. Axion Biosystems' Neural Metrics Tool classified electrodes with at least 5 spikes/min as active. […] The synchrony index was calculated using a 20 ms cross-correlogram synchrony window was used to determine the synchrony index. […]

[2] = system: MECP2-KO cortical organoids; assay: MEA electrophysiology of cortical organoids; conditions: 1 μM for one month, compared with control organoids
Procedure: as §2, with “recording.” for “recording. Axion Biosystems' Neural Metrics Tool classified electrodes with at least 5 spikes/min as active.”
Nefiracetam and PHA 543613 rescue network activity in MECP2-KO cortical organoids. The therapeutic efficacy of Nefiracetam and PHA 543613 was evaluated with cortical organoids, a complex, three-dimensional human neurodevelopmental model that closely recapitulates aspects of human fetal neurodevelopment. […]

[3] = system: MECP2-mosaic (CTR/KO) neurospheres; assay: Calcium imaging of neurospheres; conditions: for calcium transient amplitude: P=0.255
Procedure: Calcium imaging. Calcium imaging was performed as described in Chailangkarn et al. Briefly, PSC-derived neuronal networks were lentivirally transduced with a Syn::RFP reporter construct. Cultures were washed with Krebs HEPES buffer and incubated with Fluo-4AM (Molecular Probes/Invitrogen, Carlsbad, Calif., USA). A Hamamatsu ORCA-ER digital camera (Hamamatsu Photonics, Japan) with 488 nm filter on an Olympus IX81 inverted fluorescence confocal microscope (Olympus Optical, Tokyo, Japan) acquired 5000 frames at 28 Hz in a 256×256 pixel region (100× magnification). Images were acquired with MetaMorph7.7 (MDS Analytical Technologies, Sunnyvale, Calif., USA) and analyzed with ImageJ and Matlab7.2 (Mathworks, Natick, Mass., USA). Syn::RFP+ neurons were selected following tetrodotoxin blockade of calcium transients. A 95th-percentile threshold of amplitude for calcium spikes was set for event detection; signal amplitude is presented as fluorescence change (ΔF/F) following background subtraction.
Nefiracetam and PHA 543613 increase activity in MECP2-mosaic neurospheres. Because MECP2 resides on the X chromosome, random X-inactivation in females can produce a genetic pattern of mosaicism, with consequent phenotypic gradation, in which some cells express the normal allele while others are mutant. Therefore, as the next stage to evaluate the two drug candidates, a neurosphere model of MECP2 mosaicism was developed to mimic the female RTT brain by combining different proportions of control and MECP2-KO NPCs (see FIG. 7A-C). […] Calcium transient frequency in MECP2-mosaic neurospheres was increased by treatment with Nefiracetam in isolation (1 μM, P<0.05) and when combined with PHA 543613 (10 μM, P<0.001; FIG. 7H), but calcium transient amplitude was unaffected by either compound (P=0.255; FIG. 7I). To investigate the impact of the drug treatments on the electrophysiological properties of the MECP2-mosaic model, neurospheres treated with 1 μM Nefiracetam, 1 μM PHA 543613, or both Nefiracetam and PHA 543613 were plated to perform MEA analysis. […]

MECP2-KO neurons [4] = assay: Co-localized pre/postsynaptic puncta quantification in neurons; conditions: one-month old MECP2-KO neurons treated two weeks
Procedure: as §1
Synaptic puncta quantification. Co-localized pre and postsynaptic puncta (Vglut and Homer1 immunostained) along MAP2-positive processes were quantified. Primary antibodies (see above) incubated 2 h, secondary antibodies incubated 1 h, and coverslips were mounted. Slides were analyzed under fluorescence microscopy.
(§3) Pharmacologic screening identifies two compounds that specifically reverse MECP2-KO phenotypes. 14 commercially available pharmacologic compounds with mechanisms of action that counteract the synapse and neurotransmitter pathologies were selected and which are identified in FIG. 5B. […] MECP2-KO and control neurons were treated with each of the 14 compounds and employed a tiered series of assays to identify those that could selectively rescue MECP2-KO pathology without affecting controls. […] The capacity of these compounds to increase pre and post co-localized synaptic puncta in MECP2-KO neurons were evaluated, again eliminating the drugs that affected control neurons (see FIG. 5F-G, and FIG. 6C-D).

MECP2-KO neurons [5] = assay: Nuclei size in neurons; conditions: vs KO untreated
[6] = system: MECP2-KO cortical organoids; assay: Nuclei size in cortical organoids; conditions: vs KO untreated
control neurons = assay: Effect of treatment on control neurons
Procedure: as §1, §3

SMILES | MEA spike frequency / network spiking activity (MECP2-KO neurons [1]) | population spiking (MEA) [2] | calcium transient frequency ([3]; 1 μM, in isolation, P<0.05 vs CTR/KO untreated) | calcium transient amplitude [3] | synaptogenesis / co-localized synaptic puncta (MECP2-KO neurons [4]) | nuclei size in neurons (MECP2-KO neurons [5]) | nuclei size in cortical organoids [6] | effect on controls (control neurons)
Cc1cccc(C)c1NC(=O)CN1CCCC1=O [Nefiracetam, nefiracetam] | increases network spiking activity; also recorded: restore | increased population spiking to a level not significantly different from that of control organoids | increased | unaffected | specifically increased synaptogenesis | did not rescue | did not rescue | leaving controls unaffected
O=C(N[C@H]1CN2CCC1CC2)c1cc2ccoc2cn1 [PHA 543613, N-[(3R)-1-azabicyclo[2.2.2]oct-3-yl]furo[2,3-c]pyridine-5-carboxamide] | increases network spiking activity; also recorded: restore | increased population spiking to a level not significantly different from that of control organoids | – | unaffected | increases synaptic puncta | did not rescue | did not rescue | leaving controls unaffected
